Assay results as given in patent US20130303566A1, “METHOD FOR TREATING MACULAR DEGENERATION” (DAVID W. HILL, priority 2012, published 2013).

Legend:
patients with dry AMD = conditions: 60 mcg PGE1 as alprostadil, intravenous infusion daily for 15 days, 15 patients with dry AMD; cited from earlier work
patient with AMD = conditions: human, in vivo
Protocol: To test the hypothesis that vasodilators can successfully treat AMD, TriMix injectable blend was obtained containing, in 10 ml of water, 0.4 ml ethanol, 0.3 g papaverine hydrochloride, 0.02 g phentolamine mesylate and 200 mcg prostaglandin. E1 (PGE1 or “alprostadil”), with 0.01 ml benzyl alcohol. […] The following example explores the role of administering Trimix to a patient with AMD.
Initial doses were 1 mcg alprostadil, but were upped to 2 mcg of alprostadil for a period of time and then lowered to the original dose. Thus, on a daily basis, 0.85-0.10 mL of the above TriMix blend can be injected into the patient, delivering 1-2 mcg alprostadil, 0.1-0.2 mg phentolamine and 1.5-3.0 mg of papaverine.

damaged macular area = system: damaged macular area; design: species or system human; conditions: in vivo

Structure (SMILES)	trial outcome (patients with dry AMD)	tolerability of high doses (patient with AMD)	effect on vision (damaged macular area)
CCCCC[C@H](O)/C=C/[C@H]1[C@H](O)CC(=O)[C@@H]1CCCCCCC(=O)O [PGE1, (11α,13E,15S)-11,15-Dihydroxy-9-osoprost-13-en-1-oic acid]	lack of statistically significant results	without any problems	
CC(=O)Nc1ccc(O)cc1 [acetaminophen]			cause the mask of the damaged macular area to appear colored, such as bright red, can cause misty vision
CC(=O)Oc1ccccc1C(=O)O [aspirin]			cause the mask of the damaged macular area to appear colored, such as bright red, can cause misty vision
COc1ccc2cc([C@H](C)C(=O)O)ccc2c1 [naproxen sodium]			cause the mask of the damaged macular area to appear colored, such as bright red, can cause misty vision
